# According to ChEMBL document CHEMBL1201862, “PubChem BioAssay data set” (2004):
#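 Where inhibition never reached the appropriate level, the endpoint shown equals the highest concentration tested. Otherwise, values were interpolated linearly from a five-concentration, 48-hour dose response in 96-well plates. GI50: concentration for 50% inhibition of growth.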 Calls of active or inactive are those of the source. Rule as the data show it: active = GI50 up to about 1.1 µM and inactive = higher.
# Key:
# Assay in all cases: inhibition of tumour cell growth, NCI panel, 48 h
# MOLT-4 = system: MOLT-4
# HCT-15 = system: HCT-15
# SNB-19 = system: SNB-19
# Malme-3M = system: Malme-3M
# EKVX = system: EKVX
# OVCAR-3 = system: OVCAR-3
# BT-549 = system: BT-549
# TK-10 = system: TK-10
Compound,GI50 (MOLT-4),GI50 (HCT-15),GI50 (SNB-19),GI50 (Malme-3M),GI50 (EKVX),GI50 (OVCAR-3),GI50 (BT-549),GI50 (TK-10)
C=C1C(C)C2C(Cc3ccccc3)NC(=O)C23C(OC(C)=O)C=CC(C)(O)C(=O)C(C)C/C=C/C3C1O (stereo not drawn),15100 nM (inactive),5550 nM,–,–,–,–,–,–
C=C1C(=O)O[C@H]2/C=C(/C)C3=CC(=O)[C@@](C)(C[C@@H](OC(=O)/C(C)=C\C)C12)O3 (stereo partly drawn),–,–,13200 nM (inactive),387 nM (active),1290 nM (inactive),769 nM (active),1210 nM (inactive),649 nM (active)
